From patent US7745443B2 (Sanofi-Aventis Deutschland GmbH, priority 2002, dated 2010) come the findings set out here.

Chain of binding of human von Willebrand factor to europium (Eu)-chelate-labeled chimeric GPIb-Fc protein (P04275 764-2813 limits assumed, change not shown): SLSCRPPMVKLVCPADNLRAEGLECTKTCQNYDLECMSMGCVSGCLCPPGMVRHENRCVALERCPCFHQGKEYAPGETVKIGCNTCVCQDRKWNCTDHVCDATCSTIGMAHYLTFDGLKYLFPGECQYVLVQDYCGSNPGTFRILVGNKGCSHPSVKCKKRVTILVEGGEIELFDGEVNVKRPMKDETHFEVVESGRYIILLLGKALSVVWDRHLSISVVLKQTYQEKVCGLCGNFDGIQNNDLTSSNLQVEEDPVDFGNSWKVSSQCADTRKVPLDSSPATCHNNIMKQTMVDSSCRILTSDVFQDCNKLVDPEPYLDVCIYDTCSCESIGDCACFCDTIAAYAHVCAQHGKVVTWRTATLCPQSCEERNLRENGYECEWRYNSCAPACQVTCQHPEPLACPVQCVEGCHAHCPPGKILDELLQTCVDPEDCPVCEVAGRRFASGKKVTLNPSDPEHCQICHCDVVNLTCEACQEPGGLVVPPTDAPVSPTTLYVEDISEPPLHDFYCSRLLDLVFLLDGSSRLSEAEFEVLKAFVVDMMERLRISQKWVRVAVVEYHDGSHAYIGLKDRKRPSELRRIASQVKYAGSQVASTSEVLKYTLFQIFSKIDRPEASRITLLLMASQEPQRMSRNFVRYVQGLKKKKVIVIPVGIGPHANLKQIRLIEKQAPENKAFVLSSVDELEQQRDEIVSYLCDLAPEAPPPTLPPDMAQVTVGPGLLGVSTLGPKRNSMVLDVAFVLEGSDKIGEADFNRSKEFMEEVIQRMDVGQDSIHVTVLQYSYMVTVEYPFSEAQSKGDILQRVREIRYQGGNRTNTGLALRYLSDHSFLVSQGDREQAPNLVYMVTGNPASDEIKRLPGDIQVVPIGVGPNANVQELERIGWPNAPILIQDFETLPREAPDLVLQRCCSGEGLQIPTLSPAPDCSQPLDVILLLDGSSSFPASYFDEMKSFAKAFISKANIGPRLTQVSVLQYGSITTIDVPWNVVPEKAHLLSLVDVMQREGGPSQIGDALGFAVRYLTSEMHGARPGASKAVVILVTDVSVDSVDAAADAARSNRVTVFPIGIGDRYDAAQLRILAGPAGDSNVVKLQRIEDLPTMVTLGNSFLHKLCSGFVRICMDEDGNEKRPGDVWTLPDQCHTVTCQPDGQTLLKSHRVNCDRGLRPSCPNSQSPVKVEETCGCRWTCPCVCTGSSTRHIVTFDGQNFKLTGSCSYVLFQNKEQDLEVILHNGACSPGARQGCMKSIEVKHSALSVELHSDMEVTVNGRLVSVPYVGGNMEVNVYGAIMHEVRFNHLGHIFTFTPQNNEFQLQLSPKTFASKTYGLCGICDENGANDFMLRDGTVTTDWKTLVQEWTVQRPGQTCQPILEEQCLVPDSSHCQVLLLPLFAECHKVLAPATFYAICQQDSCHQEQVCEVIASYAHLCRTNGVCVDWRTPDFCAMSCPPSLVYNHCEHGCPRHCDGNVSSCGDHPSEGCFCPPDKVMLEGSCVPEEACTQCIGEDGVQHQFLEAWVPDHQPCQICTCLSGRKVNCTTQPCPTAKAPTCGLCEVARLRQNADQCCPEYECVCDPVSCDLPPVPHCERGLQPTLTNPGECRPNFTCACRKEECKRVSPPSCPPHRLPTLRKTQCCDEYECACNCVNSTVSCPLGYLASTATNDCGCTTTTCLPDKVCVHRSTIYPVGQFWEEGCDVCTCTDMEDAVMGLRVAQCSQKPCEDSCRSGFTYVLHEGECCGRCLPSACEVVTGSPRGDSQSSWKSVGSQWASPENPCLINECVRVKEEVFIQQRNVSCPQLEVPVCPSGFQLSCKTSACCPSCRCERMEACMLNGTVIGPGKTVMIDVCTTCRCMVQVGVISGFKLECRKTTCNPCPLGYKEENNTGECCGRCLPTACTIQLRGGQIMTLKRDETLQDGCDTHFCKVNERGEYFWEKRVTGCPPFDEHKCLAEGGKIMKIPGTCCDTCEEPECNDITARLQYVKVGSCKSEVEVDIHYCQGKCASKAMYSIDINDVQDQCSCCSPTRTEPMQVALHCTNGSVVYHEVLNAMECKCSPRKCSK
Chain of binding of human von Willebrand factor to europium (Eu)-chelate-labeled chimeric GPIb-Fc protein (P07359 17-335 limits assumed, change not shown): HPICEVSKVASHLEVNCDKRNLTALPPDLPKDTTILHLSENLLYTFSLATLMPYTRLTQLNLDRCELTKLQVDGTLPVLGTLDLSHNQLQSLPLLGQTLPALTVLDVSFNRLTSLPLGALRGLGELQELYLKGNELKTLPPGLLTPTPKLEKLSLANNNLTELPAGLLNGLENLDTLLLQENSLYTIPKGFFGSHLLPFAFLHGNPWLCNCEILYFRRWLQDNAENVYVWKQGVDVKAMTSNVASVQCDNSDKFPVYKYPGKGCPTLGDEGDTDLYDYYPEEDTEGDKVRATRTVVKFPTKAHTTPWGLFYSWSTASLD

The target in the test is binding of human von Willebrand factor to europium (Eu)-chelate-labeled chimeric GPIb-Fc protein (Homo sapiens, UniProt P04275+P07359). The experiment in a line: Von Willebrand Factor-GPIb Binding Assay (Eu based, botrocetin-induced). The note with it: botrocetin-induced binding of Eu-chelate-labeled chimeric GPIb-Fc to immobilized human vWF; IC50 values as specified in the examples. The procedure:
Activity of compounds of the formula I was shown by an Eu based binding assay in which the binding of human von Willebrand factor to an europium (Eu)-chelate-labeled chimeric GPIb-Fc protein was induced by botrocetin. The preparation of the Eu-chelate-labeled chimeric GPIb-Fc protein is described in detail in a patent application (Fukuchi et al., EP1074564).
A TBS (Tris buffered saline, 20 mM Tris-HCl (pH 7.4) and 0.15 M NaCl) (50 microl) containing human von Willebrand factor (2.5 microg/ml) was added to each well of 1 96-well plate, and the von Willebrand factor was immobilized as a solid phase overnight at 4 dec. Each well was washed once with TBS (150 microl) and blocked with TBS containing 5% BSA (bovine serum albumin) for about 3 hours. Each well of the plate was washed twice with TBS (150 microl), and then added with 25 microl of an assay buffer (Assay Buffer, 1244-106, produced by Wallac) with the compounds, further added with the assay buffer (25 microl) containing the europium (Eu)-chelate-labeled chimeric GPIb-Fc protein (100 ng/ml), labeled with Eu-N1-ITC (Eu-chelate of N^1-(p-isothiocyanatebenzyl)-diethlenetriamine-N^1,N^2,N^3,N^3-tetraacetic acid, 1244-302, produced by Wallac) and botrocetin (500 ng/ml), and left stand at room temperature for 2 hours. The preparation of the Eu-chelate-labeled chimeric GPIb-Fc protein is described in detail in a patent application (Fukuchi et al., EP1074564). Each well of the plate was washed 5 times with TBS (150 microl) containing 0.05% Tween-20, then added with 100 microl of a fluorescence enhancement buffer (Enhancement Solution, 1244-104, produced by Wallac), and shaken for 1 minute. Then, the amount of europium (Eu) was measured by using a 1420 ARVO multi-label counter (produced by Wallac, measurements time: 1 second).
In the case of “4-Amino-N-(4-{[(2-methyl-1H-benzimidazol-5-yl)carbonyl]amino}phenyl)-2-methyl-6-quinolinecarboxamide [Example 28]”, the IC50 (commonly the concentration that gives 50% inhibition) came out at 9.56 µM.
Turning to `Cc1cc(NCCC(=O)Nc2ccc3nc(C)cc(N)c3c2)nc(N)n1` [Example 1, 3-(2-Amino-6-methyl-pyrimidin-4-ylamino)-N-(4-amino-2-methyl-quinolin-6-yl)-propionamide], the IC50 turned out to be 24.3 µM.
The same measure for `Cc1cc(N)c2cc(NC(=O)c3cccc(Nc4cc(C)[n+](C)c(N)n4)c3)ccc2n1` [Example 2, 2-Amino-4-[3-(4-amino-2-methyl-quinolin-6-ylcarbamoyl)-phenylamino]-1,6-dimethyl-pyrimidin-1-ium]: 8.84 µM.
`Cc1cc(N)c2cc(NC(=O)c3ccc(CNc4cc(C)[n+](C)c(N)n4)cc3)ccc2n1` [Example 3, 2-Amino-4-[4-(4-amino-2-methyl-quinolin-6-ylcarbamoyl)-benzylamino]-1,6-dimethyl-pyrimidin-1-ium] had an IC50 of 92.1 µM.
For `Cc1cc(N)c2cc(NC(=O)c3ccc(CNC(=O)c4cnccn4)cc3)ccc2n1` [Example 4, Pyrazine-2-carboxylic acid 4-(4-amino-2-methyl-quinolin-6-ylcarbamoyl)-benzylamide] the value was 75.5 µM; for `Cc1cc(N)c2cc(NC(=O)c3ccc(CNC(=O)c4ccc(N)nc4)cc3)ccc2n1` [Example 5, 6-Amino-N-[4-(4-amino-2-methyl-quinolin-6-ylcarbamoyl)-benzyl]-nicotinamide], 89.9 µM.
For the compound `Cc1cc(N)c2cc(NC(=O)c3ccc(CNC(=O)c4cncc(N5CCCC5)n4)cc3)ccc2n1` [Example 6, 6-Pyrrolidin-1-yl-pyrazine-2-carboxylic acid 4-(4-amino-2-methyl-quinolin-6-ylcarbamoyl)-benzylamide], the IC50 turned out to be 47.9 µM.
For the compound `Cc1cc(N)c2cc(C(=O)Nc3ccc(Nc4cc(C)[n+](C)c(N)n4)cc3)ccc2n1` [Example 7, 2-Amino-4-[(4-{[(4-amino-2-methyl-6-quinolinyl)carbonyl]amino}phenyl)amino]-1,6-dimethylpyrimidin-1-ium], the IC50 amounted to 7.62 µM.
`Cc1cc(N)c2cc(C(=O)Nc3cccc(Nc4cc(C)[n+](C)c(N)n4)c3)ccc2n1` [Example 8, 2-Amino-4-[(3-{[(4-amino-2-methyl-6-quinolinyl)carbonyl]amino}phenyl)amino]-1,6-dimethylpyrimidin-1-ium] showed an IC50 of 82.6 µM.
For `Cc1cc(N)c2cc(C(=O)Nc3ccc(CNc4cc(C)[n+](C)c(N)n4)cc3)ccc2n1` [Example 9, 2-Amino-4-[(4-{[(4-amino-2-methyl-6-quinolinyl)carbonyl]amino}benzyl)amino]-1,6-dimethylpyrimidin-1-ium] the value was 20.1 µM.
`Cc1cc(NCc2ccc(NC(=O)c3ccc4nc(C)cc(N)c4c3)cc2)nc(N)n1` [Example 10, 2-Amino-4-[(4-{[(4-amino-2-methyl-6-quinolinyl)carbonyl]amino}benzyl)amino]-6-methylpyrimidine] returned an IC50 of 68.6 µM.
In the case of `Cc1cc(N)c2cc(C(=O)Nc3ccc(CNC(=O)c4ccc(Cl)nc4)cc3)ccc2n1` [Example 11, 4-Amino-N-[4-({[(6-chloro-3-pyridinyl)carbonyl]amino}methyl)phenyl]-2-methyl-6-quinolinecarboxamide], the IC50 is 42.9 µM.
`Cc1cc(N)c2cc(C(=O)Nc3ccc(CNC(=O)c4ccccn4)cc3)ccc2n1` [Example 12, 4-Amino-2-methyl-N-(4-{[(2-pyridinylcarbonyl)amino]methyl}phenyl)-6-quinolinecarboxamide] showed an IC50 of 58.4 µM.
`Cc1cc(N)c2cc(C(=O)Nc3ccc(CNC(=O)c4ccnc(Cl)c4)cc3)ccc2n1` [Example 13, 4-Amino-N-[4-({[(2-chloro-4-pyridinyl)carbonyl]amino}methyl)phenyl]-2-methyl-6-quinolinecarboxamide] returned an IC50 of 90.1 µM.
Compound `Cc1cc(N)c2cc(C(=O)Nc3ccc(CNC(=O)c4cncc(Br)c4)cc3)ccc2n1` [Example 14, 4-Amino-N-[4-({[(3-bromo-5-pyridinyl)carbonyl]amino}methyl)phenyl]-2-methyl-6-quinolinecarboxamide] returned an IC50 of 28.8 µM.
Compound `Cc1cc(N)c2cc(C(=O)Nc3ccc(CNC(=O)c4nccnc4N)cc3)ccc2n1` [Example 15, 4-Amino-N-[4-({[(3-amino-2-pyrazinyl)carbonyl]amino}methyl)phenyl]-2-methyl-6-quinolinecarboxamide] registered an IC50 of 54.7 µM.
Compound `Cc1cc(N)c2cc(C(=O)Nc3ccc(NC(=O)c4ccccn4)cc3)ccc2n1` [Example 16, 4-Amino-N-{4-[(2-pyridinylcarbonyl)amino]phenyl}-2-methyl-6-quinolinecarboxamide] came in with an IC50 of 43.2 µM.
The same measure for `Cc1cc(N)c2cc(C(=O)Nc3ccc(NC(=O)c4cccnc4)cc3)ccc2n1` [Example 17, 4-Amino-N-{4-[(3-pyridinylcarbonyl)amino]phenyl}-2-methyl-6-quinolinecarboxamide]: 15 µM; for `Cc1cc(N)c2cc(C(=O)Nc3ccc(NC(=O)c4cccnc4Cl)cc3)ccc2n1` [Example 18, 4-Amino-N-(4-{[(2-chloro-3-pyridinyl)carbonyl]amino}phenyl)-2-methyl-6-quinolinecarboxamide]: 52.6 µM.
The same measure for `Cc1cc(N)c2cc(C(=O)Nc3ccc(NC(=O)c4cncc(Br)c4)cc3)ccc2n1` [Example 19, 4-Amino-N-(4-{[(5-bromo-3-pyridinyl)carbonyl]amino}phenyl)-2-methyl-6-quinolinecarboxamide]: 20.9 µM; for `Cc1cc(N)c2cc(C(=O)Nc3ccc(NC(=O)c4nccnc4N)cc3)ccc2n1` [Example 20, 4-Amino-N-(4-{[(2-amino-3-pyrazinyl)carbonyl]amino}phenyl)-2-methyl-6-quinolinecarboxamide]: 4.41 µM.
Regarding `Cc1cc(N)c2cc(C(=O)Nc3ccc(NC(=O)c4cccnc4N)cc3)ccc2n1` [Example 21, 4-Amino-N-(4-{[(2-amino-3-pyridinyl)carbonyl]amino}phenyl)-2-methyl-6-quinolinecarboxamide], the IC50 is 34.4 µM.
As to `Cc1cc(N)c2cc(C(=O)Nc3ccc(NC(=O)c4ccc(N)nc4)cc3)ccc2n1` [Example 22, 4-Amino-N-(4-{[(2-amino-5-pyridinyl)carbonyl]amino}phenyl)-2-methyl-6-quinolinecarboxamide], the IC50 came out at 11.1 µM.
For `Cc1cc(N)c2cc(C(=O)Nc3ccc(NC(=O)c4ccc(O)nc4)cc3)ccc2n1` [Example 23, 4-Amino-N-(4-{[(2-hydroxy-5-pyridinyl)carbonyl]amino}phenyl)-2-methyl-6-quinolinecarboxamide] the value was 42.1 µM; for `Cc1cc(N)c2cc(C(=O)Nc3ccc(NC(=O)c4cnccn4)cc3)ccc2n1` [Example 24, 4-Amino-N-(4-{[(2-pyrazinyl)carbonyl]amino}phenyl)-2-methyl-6-quinolinecarboxamide], 15.2 µM; for `Cc1cc(N)c2cc(C(=O)Nc3ccc(NC(=O)c4cnc(Cl)c(Cl)c4)cc3)ccc2n1` [Example 25, 4-Amino-N-(4-{[(2,3-dichloro-5-pyridinyl)carbonyl]amino}phenyl)-2-methyl-6-quinolinecarboxamide], 22.9 µM.
